Patent publication US12551434B2, “Zwitterionic polymer particle compositions and related methods” (WAYNE STATE UNIVERSITY, priority 2020, dated 2026)
Read-outs that look alike come from different tables or passages of the source.

Columns and labels:
[1] = system: Caco-2 cells (PAT1 overexpression); test: Cell uptake of micelle/polystyrene nanoparticles (confocal, flow cytometry); type: cell-based, human
Experimental: Cell uptake of polystyrene nanoparticles for Caco-2 and 3T3 cells. Caco-2 human colon epithelial cells and NIH 3T3 mouse embryonic fibroblast cells were used as received from the American Type Culture Collection without further authentication, and were cultured in Dulbecco's Modified Eagle's Medium (DMEM) and Eagle's Minimum Essential Medium (EMEM) at 37° C. in a 5% CO2 environment respectively. […] Cells were seeded in a 12-well plate at a density of 1×10^5 cells per well overnight, washed twice with pre-wared PBS, and incubated with DSPE-PCB/polystyrene nanoparticles in culture medium at 37° C. for 2 h. […] Cellular uptake of DSPE-PCB/polystyrene nanoparticles in different groups was examined by an Zeiss LSM 780 confocal laser scanning microscope. The Z-stack method was used for three-dimensional visualization, where the section thickness was 2.5 μm, the step interval was 2 m, and the total z-stack length was 44 μm (23 slices). Fluorescent signal was quantified by using the image J software. Cellular uptake was also quantitively measured with flow cytometry (BD FACSAria II flow cytometer) and analyzed with FlowJo X software.

[2] = system: intestinal tight junctions; test: Lactulose-mannitol intestinal permeability test; type: in vivo; conditions: healthy and diabetic mice, 1 h after ileum co-injection, vs control without micelles
Experimental: The lactulose-mannitol intestinal permeability test. Healthy and diabetic mice remained fasted for 8 h and were restricted from water for 3 h before the experiment. Then mice received 500 μL water through oral gavage. 1 h later, the lactulose, mannitol, and free micelles were co-administered via ileum injection at the dose of 40/8/5.2 mg/ml (50 μL) and the wound is closed with wound clips. 1 h post ileum injection, the urine was collected, and the ileum tissue surrounding the injection site was collected for TEM imaging. The concentrations of lactulose and mannitol were measured using LC-MS-MS, with a mobile phase of 10 mM ammonium formate in water and acetonitrile (90:10), and an Agilent advanced bio glucan mapping column (2.1×100 mm×2.7 μm) (precursor and product: mannitol 180.7→89; lactulose 341.2→160.8).

Caco-2 monolayers = test: Transepithelial electrical resistance (TEER) study
Experimental: Transepithelial electrical resistance (TEER) study. Caco-2 cells were suspended in EMEM supplemented with 20% FBS, and seeded at a density of 2×10^5 cells per well on Corning® Transwell polyester membrane cell culture inserts and incubated for 96 h. The TEER was monitored to confirm proper barrier formation and only monolayers with initial TEER values of at least 300Ω×cm^2 were used for TEER or molecular permeability experiments. Prior to the study, the medium in the apical and basolateral chambers was replaced with prewarmed EMEM. After equilibration at 37° C. for 30 min, the apical solution was replaced with Sodium decanoate, polysorbate 80 or DSPE-PCB (0.2% w/v) in EMEM. After incubation for 4 h, the TEER value of each insert was measured with EVOM2
Epithelial volt/ohmmeter to explore the integrity of the tight junction.

healthy mice = test: Long-term safety of repeated consecutive dosing; conditions: for serum endotoxin and pro-inflammatory cytokines (TNF-α, IFN-γ, IL-6): healthy mice, oral gavage twice daily 14 days, day 0 and 14, before and 1 h after dose
Experimental: Long-term safety of repeated consecutive dosing. […] At day 14, the lactulose/mannitol experiment was conducted to examine potential tight junction opening through the lactulose-mannitol intestinal permeability test. In addition, the ileum tissue was collected and fixed in 10% zinc fixative (BD Pharmingen™), dehydrated in ethanol, and embedded in paraffin. Five-μm cross-sections of intestine tissue were deparaffinized, rehydrated, and stained with Hematoxylin and Eosin. Histological morphology was examined using an EVOS XL Core Cell Imaging microscope. In addition, healthy mice received the same oral administered with DSPE-PCB micelle, saline, Polysorbate 80, or sodium decanoate twice daily for 14 consecutive days (the same dose as above). On day 0 and 14, before and 1 h after the oral administration, blood serum was collected and the endotoxin and pro-inflammatory cytokines (IFN-γ, IL-1β, ILL-4, IL-6, IL-12, TNF-α) were measured with Pierce LAL Chromogenic Endotoxin Quantitation Kit and the mouse magnetic Luminex® assays (Lot No: L131929).

[3] = system: intestine epithelial tight junctions; test: TEM imaging of tight junctions after ileum injection; conditions: 1 h post ileum injection
Experimental: (§1) 1 h post ileum injection of the formulations, mice were euthanized and small parts of ileum (5×5 mm) near to the injection site were collected and washed with PBS. The samples were continuously fixed in 2.5% glutaraldehyde+2.5% paraformaldehyde in 0.1M PBS buffer and 4% osmium tetroxide solution and transferred into Beem® embed capsule with micro-embed resin added to embed samples. The obtained blocks were further sectioned with ultra-microtomy to obtain sections with thickness of ˜70 nm. These sections were retrieved via copper grid and stained with 1% lead citrate and 4% uranyl acetate separately, and then visualized under a JEM-100CX II electron microscope operated at 100 kV.

[4] = type: in vitro ADME, porcine
Experimental: Tracking nanoparticle diffusion in mucus. Nanoparticle diffusion behavior in mucus was studied by modifying methods as described in Lai, S. K. et al. P Natl Acad Sci USA 104, 1482-1487 (2007) and Olmsted, S. S. et al. Biophys J 81, 1930-1937 (2001). Mucus was reconstituted by dissolving porcine stomach mucin in phosphate buffered saline (PBS) at 30 mg/ml. Nanogels were added into 100 μl mucus to reach a final concentration of 3% vol/vol (final particle concentration, 8.25×10^−7 wt/vol) and incubated for 1 h on a Nunc™ glass bottom dish (0.17 mm thickness for the inside bottom glass) before observation. Movies were captured with 64×oil-immersion objective in a spinning disc confocal microscope (Yokogawa CSU-X1M 5000 microlens, Zeiss LSM 800). For each nanogel sample, trajectories of n=50 particles were analyzed, and three samples were examined for each type of nanogel. MSD was calculated with the equation of MSD=<|r(t)-r(0)|^2> at a temporal resolution of 200 ms for 20 s.

[5] = system: intestine epithelial tight junctions; conditions: mouse, in vivo
Experimental: as §1

[6] = system: streptozotocin (STZ)-induced C57BL/6 diabetic mice; test: Blood glucose lowering on STZ-induced diabetic mice (ileum injection or oral gavage); type: in vivo; conditions: ileum injection, 20 IU/Kg, compared with saline baseline
Experimental: Animals and diabetes induction. All animal experiments were performed according to the National Institute of Health (NIH) guidelines for animal research under a protocol approved by the Institutional Animal Care and Use Committee (IACUC) at Wayne State University. To establish streptozotocin (STZ)-induced diabetic mice model, healthy mice (C57BL/6J, male, 6-8 weeks of age, Jackson Lab) received a daily intraperitoneal injection of 5 mg/ml STZ at 50 mg/kg body weight for 5 consecutive days. 17 days after the first injection, body weight and blood glucose were measured to confirm the diabetic status. Diabetic mice with blood glucose above 300 mg/dL were selected for further in vivo test. To establish STZ-rat model, healthy rats (Sprague Dawley rat, male, ˜180 g, Charles River) received a one-time intraperitoneal injection of 65 mg/kg STZ. 10 days after injection, diabetic rats with blood glucose above 300 mg/dL were selected for further in vivo test.
Ileum injection surgery. Mice received buprenorphine SR subcutaneously and surgical anesthesia was managed by isoflurane inhalation. The surgical site (abdomen) was shaved and prepped with three alternating scrubs of betadine and alcohol. On prepped animal, a single incision (1.5-2 cm) was made through abdomen skin. About 0.5-1 cm ileum of intestine was pulled-out from the enterocoelia. […]

Caco-2 cells [7] = test: In vitro cytotoxicity (MTT) and live/dead assay; type: cell-based, human; conditions: 0.01-1 mg/ml, 24 h
Experimental: In vitro cytotoxicity and live/dead assay. In vitro cytotoxicity was evaluated using MTT assay with Caco-2 cells. Caco-2 cells were seeded on 96-well plates at a density of 2×10^4 cells per well in Eagle's Minimum Essential Medium (EMEM) with 20% FBS and cultured in 5% CO2 atmosphere at 37° C. for 24 h. Then the cells were washed twice with HBSS and incubated with 100 μl of DSPE-PCB micelle or Polysorbate 80 solutions in EMEM with concentrations of 0.01, 0.1, and 1.0 mg/ml, respectively. After 24 h of incubation at 37° C., the DSPE-PCB micelle and Polysorbate 80 solution were replaced with 100 μL of MTT solution (0.5 mg/ml in HBSS), and the cells were incubated for an additional 4 h at 37° C. Subsequently, the supernatant was carefully removed and 150 μL of dimethyl sulfoxide (DMSO) was added to each well. The absorbance of the resultant solutions was measured at 570 nm using a microplate reader (Bio-Rad, USA). Untreated cells were used as negative control for 100% cell viability. Cell viability was expressed as percentage of absorbance relative to the control. Live/dead assay was conducted by staining the cells with 100 μL of PBS buffer containing 2 μM Calcein and 4 μM ethidiumhomodimer-1 (Live/Dead viability/cytotoxicity kit, Invitrogen, CA, USA). The cells were incubated at room temperature for 30 minutes and observed by the EVOS FL fluorescence microscope (AMG).

Caco-2 cells [8] = system: Caco-2 cells
Caco-2 cells [9] = test: LDH leakage assay; conditions: % of untreated cell negative control; 1% with sonication, complete lysis, positive control

Compound: N[C@@H](Cc1c[nH]c2ccccc12)C(=O)O [L-tryptophan]
- inhibition of Caco-2 uptake of DSPE-PCB micelle particles by PAT1 substrates ([1]; pretreatment 5 mg/ml, 1 h): significantly inhibited

Compound: CCCCCCCCCC(=O)[O-].[Na+] [sodium decanoate]
- excretion ratio of lactulose to mannitol (L/M) in urine [2]: drastically higher L/M ratio values
- TEER / permeability of Caco-2 cell layers (Caco-2 monolayers; 0.2% w/v, 4 hours): drastically decreased TEER values
- serum endotoxin and pro-inflammatory cytokines (TNF-α, IFN-γ, IL-6) (healthy mice): observable increase
- tight junction morphology (TEM) [3]: even more severe tight junction opening

Compound: DSPE lipid conjugated with poly(N-methacryloyloxyethyl-N,N-dimethylammonium-α-N-methylcarboxybetaine) [DSPE-PCB micelles]
- MSD relative to Polysorbate 80 micelles [4]: ~12 times
- TEER / permeability of Caco-2 cell layers (Caco-2 monolayers; Caco-2): did not increase the permeability of Caco-2 cell layers
- small intestine histology (H&E) on day 14 (healthy mice; mouse, in vivo, po): no significant structural damage
- tight junction opening, urine lactulose/mannitol test at day 14 (healthy mice; mouse, in vivo, po): no significant tight junction opening
- tight junction morphology (TEM) [5]: intact tight junctions

Compound: Native insulin: native insulin not encapsulated by any carrier
- glucose-lowering effect [6]: hardly achieved any glucose-lowering effect

Compound: Polysorbate 80
- cellular uptake ([1]; Caco-2 cells compared with 3T3 cells, 2 h, 37 C): no observable polysorbate 80 uptake
- excretion ratio of lactulose to mannitol (L/M) in urine [2]: drastically higher L/M ratio values
- TEER / permeability of Caco-2 cell layers (Caco-2 monolayers; Caco-2): drastically decreased TEER values
- cytotoxicity (cell viability, MTT, live/dead staining) (Caco-2 cells [7]): no significant cytotoxicity
- serum endotoxin and pro-inflammatory cytokines (TNF-α, IFN-γ, IL-6) (healthy mice): observable increase
- tight junction morphology (TEM) [5]: severe tight junction opening
- lactate dehydrogenase (LDH) release (Caco-2 cells [8]): no significant lactate dehydrogenase (LDH) release

Compound: Triton X-100
- LDH leakage level (Caco-2 cells [9]): 240%
